Reference: ChEMBL document CHEMBL1155698, “Two new antimicrobial lysoplasmanylinositols from the marine sponge Theonella swinhoei” (2001)
Active and inactive are the calls of the source. The rule behind the calls is not given here.

Columns and labels:
[1] = test system: Umbelopsis ramanniana; assay: Antimicrobial activity against Mortierella ramanniana; type: functional, organism-based
[2] = test system: Escherichia coli; assay: Antimicrobial activity against Escherichia coli at 50 ug/disk; type: functional; settings: read-out: IZ
[3] = test system: Escherichia coli; assay: Antimicrobial activity against Escherichia coli by […]; type: functional, organism-based

SMILES	Activity [1]	zone of inhibition at 50 µg/disc [2] [mm]	Activity [3]
CCCCCCCC(C)CCCCCCCCOC[C@@H](O)COP(=O)(O)O[C@@H]1[C@@H](O)[C@H](O)[C@@H](O)[C@H](O)[C@@H]1O (some centres undefined)	inactive	12	–
CCCCCCC1C(C)C1CCCCCCCOC[C@@H](O)COP(=O)(O)O[C@@H]1[C@@H](O)[C@H](O)[C@@H](O)[C@H](O)[C@@H]1O (some centres undefined)	inactive	–	Active
